This is an account of results in patent EP4768480A1, “ALKOXY THIOPHENE ACYL ARYLAMINE COMPOUNDS AND USE THEREOF” (priority 2024, dated 2025).

Test [1] concerns dry eye mice. Kind of test: Ocular surface sodium fluorescein staining in dry eye mice. In kind it is in vivo, male C57BL/6 experimental mice. Conditions: for corneal fluorescein sodium staining scores compared to cyclosporine eyedrops: 0.04% compound, comparison with cyclosporine eyedrops; for corneal fluorescein sodium staining scores compared to cyclosporine eyedrops / corneal fluorescein sodium staining scores: 5 µl per eye, twice daily, one week; for corneal fluorescein sodium staining scores: ocular surface, 0.04% compound or commercial cyclosporine eyedrops, versus carrier group; for area of corneal damage (sodium fluorescein staining photograph): compared to the carrier group, Figure 2. The method, then:
(§1) Experimental animals: male C57BL/6 experimental mice aged 6-8 weeks.
(§2) Experimental reagents and consumables: phenol red cotton line, 1% sodium fluorescein solution, ? 0.05% cyclosporin eyedrops (II) from Xingqi Eyedrops Company, 0.
(§3) At the end of 2 weeks, the dry eye mice were randomly divided into four groups, with 7 mice in each group.
(§4) Each eye of every mouse received 5 µl of […] through ocular surface administration, twice daily. Another group of 7 male C57BL/6 experimental mice aged 6-8 weeks was kept in a thermostatic blast drying oven with controlled environmental humidity of 50% and temperature of 25°C, and received an empty carrier as a physiological control in the third week.
(§5) All mice were evaluated for ocular surface damage recovery by ocular surface fluorescein sodium staining scores on the third weekend, and the tear secretion of mice was measured with phenol red surface lines. To be more specific, the phenol red surface line was placed in the conjunctival sac of a mouse in the anesthesia state for 30 seconds, and then the discoloration length of the phenol red surface line was measured. 2 µl of 1% sodium fluorescein solution was then administered through ocular surface, and photographs were taken under a cobalt blue lamp for scoring and statistics.

The test system of test [2] is dry eye mice. Description: Tear secretion by phenol red cotton thread in dry eye mice. The format is in vivo, male C57BL/6 experimental mice. Conditions: thread 30 seconds in conjunctival sac, compared to the vehicle group, Figure 3. The method, then: as §1, §2, §3, §4, §5
Test [3] has as its target T1, SMS2 (Homo sapiens, UniProt Q8NHU3).
T1 construct: CAO, Yu research team, National Protein Scientific Center (Shanghai); supplied by an outside laboratory, not a commercial vendor
T1 sequence (Q8NHU3 1-365): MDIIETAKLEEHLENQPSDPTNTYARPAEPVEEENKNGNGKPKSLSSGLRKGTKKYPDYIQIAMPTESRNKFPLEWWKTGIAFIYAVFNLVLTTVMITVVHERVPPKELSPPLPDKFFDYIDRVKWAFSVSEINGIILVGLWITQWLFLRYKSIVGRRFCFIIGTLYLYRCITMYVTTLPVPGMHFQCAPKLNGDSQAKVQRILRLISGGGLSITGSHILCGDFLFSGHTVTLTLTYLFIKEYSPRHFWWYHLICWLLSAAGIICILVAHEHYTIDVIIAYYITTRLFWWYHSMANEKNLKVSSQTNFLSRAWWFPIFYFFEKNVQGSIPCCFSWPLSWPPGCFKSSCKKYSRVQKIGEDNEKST
Description: SMS2 inhibitory activity in vitro, HPLC fluorescence quantitative detection (C6-NBD-ceramide to C6-NBD-SM). The format is biochemical. To be noted: 10 µM test compound; SMS2 pure enzyme; 37°C, 30 minutes; average of two measurements; read-out: Inhibition rate on SMS2 at C/µM 10.

Test [4] deals with Aβ (Homo sapiens, UniProt P05067). Conditions: literature value, Deepak et al., 2020; read-out: inhibiting the aggregation of Aβ, EC50; cited from earlier work.
Chain of Aβ (P05067 672-713 limits assumed): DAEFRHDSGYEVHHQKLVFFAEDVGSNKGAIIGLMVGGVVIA

One may read the EC50 as the concentration that produces a half-maximal response.

As to `O=C(Nc1cccnc1)c1sccc1OCc1cc(F)ccc1Cl` [1-2, 3-(2-chloro-5-fluorobenzyloxy)-N-(pyridin-3-yl)thiophene-2-carboxamide], in test [1], the “corneal fluorescein sodium staining scores compared to cyclosporine eyedrops” value was “statistically significant advantages”, the “corneal fluorescein sodium staining scores” value is listed as “reduction in corneal fluorescein sodium staining scores” and the “area of corneal damage (sodium fluorescein staining photograph)” value is “can reduce the area of corneal damage”. For the same molecule, the “tear secretion (discoloration length of phenol red cotton thread)” value in test [2] is given as “exhibited an increasing trend compared to the vehicle group”.
The matching figures for `CCCCCCCCOc1ccccc1COc1ccsc1C(=O)Nc1cccnc1` [1-31, 3-(2-(octyloxy)benzyloxy)-N-(pyridin-3-yl)thiophene-2-carboxamide]: “statistically significant advantages”, “reduction in corneal fluorescein sodium staining scores”, “can reduce the area of corneal damage” and “exhibited an increasing trend compared to the vehicle group”.
As for `O=C(Nc1cccnc1)c1ncccc1OCc1ccccc1` [12-15, 3-benzyloxy-N-(pyridin-3-yl)pyridin-2-carboxamide], in test [3], the inhibition at 10 µM was found to be 16%.
Same read-out and setting: under `O=C(Nc1cccnc1)c1cnccc1OCc1ccccc1` [12-16, 4-benzyloxy-N-(pyridin-3-yl)pyridin-3-carboxamide] stands 17%; under `O=C(Nc1cccnc1)c1ccncc1OCc1ccccc1` [12-17, 3-benzyloxy-N-(pyridin-3-yl)pyridin-4-carboxamide], 27%.
As to `O=C(Nc1cccnc1)c1cccnc1OCc1ccccc1` [12-18, 2-benzyloxy-N-(pyridin-3-yl)pyridin-3-carboxamide], the inhibition at 10 µM in test [3] came out at 22%.
Still for that read-out and setting: with `O=C(Nc1cccnc1)c1cncnc1OCc1ccccc1` [12-19, 4-benzyloxy-N-(pyridin-3-yl)pyrimidin-5-carboxamide] the figure was 18%.
Still for that read-out and setting: under `O=C(Nc1cccnc1)c1nccnc1OCc1ccccc1` [12-20] stands 16%.
As to `CC(C)=CCC/C(C)=C/CC[C@@]1(C)C=Cc2c(cc(C)c(C(=O)O)c2O)O1` [Daurichromonic acid], in test [4], the EC50 is 57 µM.
